This is an account of results in patent US20250084084A1, “Crystalline form of (2R)-2-(5-fluoro-2-methoxypyridin-4-yl)-1-[(2S)-7-methyl-6-(pyrimidin-2-yl)-3,4-dihydro-1H-spiro[1,8-naphthyridine-2,3-pyrrolidin]-1-yl]propan-1-one” (Pfizer Inc., priority 2020, published 2025).

As usually defined, the Ki is a dissociation constant, usually derived from enzyme kinetics or from competition with a known ligand.

The assay concerns the target α-melanocyte-stimulating hormone receptor (hMC4R) (Homo sapiens (Human), UniProt P32245). Description: In vitro binding affinity assay using hMC4R (radioligand competition binding, [125I]-(Nle4, D-Phe7)-α-MSH). The conditions noted are these: geometric mean, read-out: Ki (nM) geometric. The gist of the method:
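Membranes from CHO cells stably expressing hMC4R (2 μg/well) incubated 2 h RT with [125I]-NDP-α-MSH and compound (300 nM-0.01 nM, 1% DMSO); 2 μM α-MSH defined nonspecific binding. Filtration and scintillation counting; Ki from IC50 via Cheng-Prusoff.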
(In general: Loss of bound radioactivity is the signal in a displacement assay; it reports binding, not function.)

Chain of α-melanocyte-stimulating hormone receptor (hMC4R) (P32245 whole entry): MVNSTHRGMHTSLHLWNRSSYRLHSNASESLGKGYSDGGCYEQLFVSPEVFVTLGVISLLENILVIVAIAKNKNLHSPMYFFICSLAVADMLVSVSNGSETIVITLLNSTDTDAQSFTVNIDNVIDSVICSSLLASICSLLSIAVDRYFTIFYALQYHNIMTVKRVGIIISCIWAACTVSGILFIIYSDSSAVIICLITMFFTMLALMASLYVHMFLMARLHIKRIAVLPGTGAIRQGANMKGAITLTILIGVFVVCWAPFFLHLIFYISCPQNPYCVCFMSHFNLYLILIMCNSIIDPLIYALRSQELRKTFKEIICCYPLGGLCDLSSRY

In the case of `COc1cc([C@@H](C)C(=O)N2CC[C@@]3(CCc4cc(-c5cnc(C)cn5)c(C)nc4N3)C2)c(F)cn1` [Example 158, (2R)-2-(5-fluoro-2-methoxypyridin-4-yl)-1-[(2S)-7-methyl-6-(5-methylpyrazin-2-yl)-3,4-dihydro-1H-spiro[1,8-naphthyridine-2,3′-pyrrolidin]-1′-yl]propan-1-one], the Ki was 3.2 nM.

With `COc1cc([C@@H](C)C(=O)N2CC[C@@]3(CCc4cc(-c5ccc(OC(F)F)nc5)c(C)nc4N3)C2)c(F)cn1` [Example 159, (2R)-1-{(2S)-6-[6-(difluoromethoxy)pyridin-3-yl]-7-methyl-3,4-dihydro-1H-spiro[1,8-naphthyridine-2,3′-pyrrolidin]-1′-yl}-2-(5-fluoro-2-methoxypyridin-4-yl)propan-1-one], the inhibitory constant (Ki) worked out at 18 nM.

Take `COc1cc([C@@H](C)C(=O)N2CC[C@@]3(CCc4cc(-c5cc6onc(C)c6cc5C)c(C)nc4N3)C2)c(F)cn1` [Example 160, (2R)-1-[(2S)-6-(3,5-dimethyl-1,2-benzoxazol-6-yl)-7-methyl-3,4-dihydro-1H-spiro[1,8-naphthyridine-2,3′-pyrrolidin]-1′-yl]-2-(5-fluoro-2-methoxypyridin-4-yl)propan-1-one]: the Ki amounted to 200 nM.

Take `COc1cc([C@@H](C)C(=O)N2CC[C@@]3(CCc4cc(-c5cccc(-c6nnc(C)o6)c5)c(C)nc4N3)C2)c(F)cn1` [Example 161, (2R)-2-(5-fluoro-2-methoxypyridin-4-yl)-1-{(2S)-7-methyl-6-[3-(5-methyl-1,3,4-oxadiazol-2-yl)phenyl]-3,4-dihydro-1H-spiro[1,8-naphthyridine-2,3′-pyrrolidin]-1′-yl}propan-1-one]: the Ki was 47 nM.

For the compound `COc1cc([C@@H](C)C(=O)N2CC[C@@]3(CCc4cc(-c5nc(C(C)C)ns5)c(C)nc4N3)C2)c(F)cn1` [Example 162, (2R)-2-(5-fluoro-2-methoxypyridin-4-yl)-1-{(2S)-7-methyl-6-[3-(propan-2-yl)-1,2,4-thiadiazol-5-yl]-3,4-dihydro-1H-spiro[1,8-naphthyridine-2,3′-pyrrolidin]-1′-yl}propan-1-one], the Ki was 8.2 nM.

As to `COc1cc([C@@H](C)C(=O)N2CC[C@@]3(CCc4cc(-c5nc(C)c(C)s5)c(C)nc4N3)C2)c(F)cn1` [Example 163, (2R)-1-[(2S)-6-(4,5-dimethyl-1,3-thiazol-2-yl)-7-methyl-3,4-dihydro-1H-spiro[1,8-naphthyridine-2,3′-pyrrolidin]-1′-yl]-2-(5-fluoro-2-methoxypyridin-4-yl)propan-1-one], the Ki was found to be 2.8 nM.

As for `COc1cc([C@@H](C)C(=O)N2CC[C@@]3(CCc4cc(-c5nccnc5C)c(C)nc4N3)C2)c(F)cn1` [Example 164, (2R)-2-(5-fluoro-2-methoxypyridin-4-yl)-1-[(2S)-7-methyl-6-(3-methylpyrazin-2-yl)-3,4-dihydro-1H-spiro[1,8-naphthyridine-2,3′-pyrrolidin]-1′-yl]propan-1-one], the Ki was 18 nM.

Turning to `COc1cc([C@@H](C)C(=O)N2CC[C@@]3(CCc4cc(-c5ccc6sc(C)nc6c5)c(C)nc4N3)C2)c(F)cn1` [Example 165, (2R)-2-(5-fluoro-2-methoxypyridin-4-yl)-1-[(2S)-7-methyl-6-(2-methyl-1,3-benzothiazol-5-yl)-3,4-dihydro-1H-spiro[1,8-naphthyridine-2,3′-pyrrolidin]-1′-yl]propan-1-one], the Ki worked out at 81 nM.

With `COc1cc([C@@H](C)C(=O)N2CC[C@@]3(CCc4cc(-c5cc(C)ccn5)c(C)nc4N3)C2)c(F)cn1` [Example 166, (2R)-2-(5-fluoro-2-methoxypyridin-4-yl)-1-[(2S)-7-methyl-6-(4-methylpyridin-2-yl)-3,4-dihydro-1H-spiro[1,8-naphthyridine-2,3′-pyrrolidin]-1′-yl]propan-1-one], the Ki turned out to be 8.2 nM.
